By IC50 is commonly meant the concentration that gives 50% inhibition. A word on the half-life: it is the time in which the quantity being followed falls by half. A high value points to slow loss.

For one data set, the target named is SirT1 (Homo sapiens (Human), UniProt Q96EB6). In words: In vitro deacetylation assay (Fluor de Lys SirT1 Fluorescent Activity Assay). The format is biochemical. The note with it: FdL substrate 7 μM, NAD+ 1 mM, 37° C., 1 hour; read-out: SIRT1 inhibition IC50.
Data set [1] deals with p53-dependent transcription. Description: p53-dependent transcription in T22 RGC-ΔFos-lacZ cells (primary screen, beta-galactosidase/CPRG). In kind it is cell-based. The following applies: for Bioactivity (relative to JJ91): p53-dependent transcription in T22 RGC-ΔFos-lacZ cells, JJ91 activity taken as 100%.
Procedure: T22 RGC-ΔFos-lacZ cells expressing beta-galactosidase under the control of a p53-dependent promoter were used and are described by Lu X, Burbidge S A, Griffin S, and Smith H M in Oncogene. […] DMSO should not exceed 1:100 final concentration in medium. Use an untreated control and a positive control treated with 5 ng/ml actinomycin D. Total volume=100 μl • Remove medium from 96 well plate after 18 h and add 50 μl 1× lysis buffer (Promega) per well • Shake for 1 hour at room temperature (can freeze plate at −80° C. until ready to use) • Add 150 μl CPRG reaction mix per well, • Preparation of 15 ml CPRG reaction mix: • 15 ml 0.1M phosphate buffer, pH7.5 • 300 μl CPRG 4 mg/ml (Boehringer-Mannheim) 80 μl (0.1 M MgCl2/0.1 M β-mercaptoethanol) • Incubate 4 hours at 37° C. in a damp chamber. If colour changes from yellow to pink, this indicates p53 activity • Transfer 100 μl from each well to a new 96 well plate. This prevents cell debris from interfering with absorbance reading.
Fold induction of p53-dependent transcription was measured.
Data set [2] concerns BL2 Burkitt lymphoma xenograft tumours. In words: BL2 Burkitt lymphoma xenograft tumours in SCID mice. In kind it is in vivo. The following applies: 92 mg/kg daily by intraperitoneal injection, measured to day 11. As to the method: Referring to FIG. 7, BL2 Burkitt lymphoma xenograft tumours in SCID mice were established for 7 days until tumours were palpable. […] Tumour sizes were measured on the day of injection (day 1) and on days 4, 8 and 11 post-injection.

The subject of the next data set is SKNSH-DDp53 cells. Description: FACS analysis of neuroblastoma cells with inactivated p53. The following applies: 10 μM, 48 hours, SKNSH cells with inactive p53. The format is cell-based. Here is the method: Neuroblastoma cell lines SKNSH-CMVNeo (with functional p53) and SKNSH-DDp53 (inactivated p53) were used and are described by Smart P, Lane E B, Lane D P, Midgley C, Vojtesek B, Lain S. in Oncogene. 1999 Dec. 2; 18(51):7378-86.
• Seed 50,000 cells per well of a 6 well plate in DMEM-10% FCS Day 2 • Add drugs to cells Day 4 • Add bromodeoxyuridine (BrdU) to 30 μM and incubate cells for 20 minutes. • Remove media from cells and transfer to a 13 ml Falcon tube. Rinse cells with PBS and transfer this also. Trypsinise cells and transfer to tube then finally rinse with PBS again. Once all transferred to tube, pellet cells at 1500 rpm for 5 minutes. • Resuspend cells in 1 ml of PBS and add drop wise to 3 ml of ethanol while vortexing. Incubate for a minimum of 1-2 hours at 4° C. (no maximum). […] Keep on ice in the dark until analysed on the FACScan. • Measure DNA content (propidium iodide fluorescence) and DNA synthesis (BrdU incorporation) by FACScan. […]
Cells were analysed by FACS analysis.
Background: Flow cytometry measures light scatter and fluorescence of single cells or particles in a stream.

The test system of data set [3] is BL2 Burkitt lymphoma cells. In words: Survival of BL2 Burkitt lymphoma cells. The format is cell-based. The note with it: 1 μM to 10 μM in 70% cyclodextrin, 2 hours exposure daily for six days. Here is the method: At this time, the number of live cells were counted. After this short exposure, cells were washed to remove the compound. This treatment was repeated daily for six days. Experiments were performed in triplicate and standard deviations indicated.

A further data set relates to p53. Description: Western blotting of MCF-7 cell extracts. In kind it is cell-based. The following applies: MCF-7 cells, 10 μM. Here is the method:
• Seed 50,000 cells per well of a 6 well plate in DMEM-10% FCS Day 2 • Add drugs to cells Day 4 • Add bromodeoxyuridine (BrdU) to 30 μM and incubate cells for 20 minutes. • Remove media from cells and transfer to a 13 ml Falcon tube. Rinse cells with PBS and transfer this also. Trypsinise cells and transfer to tube then finally rinse with PBS again. Once all transferred to tube, pellet cells at 1500 rpm for 5 minutes. • Resuspend cells in 1 ml of PBS and add drop wise to 3 ml of ethanol while vortexing. Incubate for a minimum of 1-2 hours at 4° C. (no maximum). Day 5 • Pellet by centrifugation at 2,500 rpm for 5 minutes then pour off supernatant. • Prepare 2 ml fresh pepsin solution per tube at 1 mg/ml in 30 mM HCl (pH 1.5) and prewarm to 37° C. • Add 2 ml prewarmed pepsin solution to each tube and mix for 30 mins at 37° C. • Pellet by centrifugation at 2500 rpm for 5 minutes then pour off supernatant (pellets will be clear) • Add 1 ml 2M HCl for 15-20 mins at room temperature (stock bottle is 11.6 M). • Timing is critical—incubating for long periods results in broad DNA peaks. • Top up with PBS then pellet as before. • Wash again with PBS then once in antibody buffer, pelleting cells each time. • Antibody buffer: PBS, 0.5% BSA, 0.5% Tween-20 • Resuspend pellet into 200 μl of Becton Dickinson anti-BrdU antibody diluted 1:50 in antibody buffer. Incubate for 1 h at room temperature. • Wash in PBS and pellet cells. • Resuspend pellet in 200 μl Sigma FITC antibody (#3008) diluted 1:64 in antibody buffer. Incubate for 30 min at room temperature in the dark to prevent the antibody fading. • Wash in PBS and pellet cells. • Resuspend final pellet in 500 μl PBS containing 25 μg/ml propidium iodide counter stain. Keep on ice in the dark until analysed on the FACScan. • Measure DNA content (propidium iodide fluorescence) and DNA synthesis (BrdU incorporation) by FACScan. 3. […]
Levels of the p53 downstream target p21 are increased Actin was analysed as a loading control.
In general terms: Immunoblotting shows a protein as a band on a membrane.

Data set [4] can be described thus: Blood levels after administration to mice (LC-MS/MS). In kind it is in vivo. The following applies: 5 mg/kg, intraperitoneal injection. Here is the method:
Blood levels were determined at the times shown by LC-MS/MS above and the values shown are the means±SD for three determinations.

SMILES strings stand for the structures. Counter-ions that a name gives are not always drawn.

SirT1, sequence (Q96EB6 whole entry): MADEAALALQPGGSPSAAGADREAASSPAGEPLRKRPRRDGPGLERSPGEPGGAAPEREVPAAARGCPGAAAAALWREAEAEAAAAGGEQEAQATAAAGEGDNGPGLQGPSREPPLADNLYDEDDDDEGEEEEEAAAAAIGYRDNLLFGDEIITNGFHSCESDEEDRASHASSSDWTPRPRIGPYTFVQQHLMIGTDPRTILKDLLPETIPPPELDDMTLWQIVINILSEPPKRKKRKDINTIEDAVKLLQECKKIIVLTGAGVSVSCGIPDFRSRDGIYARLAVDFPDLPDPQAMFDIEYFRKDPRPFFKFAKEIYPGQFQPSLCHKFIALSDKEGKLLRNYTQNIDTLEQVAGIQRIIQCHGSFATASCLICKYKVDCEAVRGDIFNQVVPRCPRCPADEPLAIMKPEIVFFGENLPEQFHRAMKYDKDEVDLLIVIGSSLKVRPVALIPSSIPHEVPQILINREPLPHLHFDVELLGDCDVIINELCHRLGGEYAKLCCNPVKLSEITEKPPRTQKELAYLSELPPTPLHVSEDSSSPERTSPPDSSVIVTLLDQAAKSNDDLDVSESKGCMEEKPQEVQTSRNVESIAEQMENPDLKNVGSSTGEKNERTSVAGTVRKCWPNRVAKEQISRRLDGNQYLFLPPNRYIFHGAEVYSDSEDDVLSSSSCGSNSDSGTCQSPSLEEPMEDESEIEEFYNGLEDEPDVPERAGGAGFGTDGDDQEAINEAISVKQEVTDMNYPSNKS
Procedure for SirT1: Enzymatic SirT1 assays were carried out using purified components in the Fluor de Lys Fluorescent Assay Systems (Biomol kit AK555) and following the manufacturers instructions. […] Reactions were carried out at 37° C. for 1 hour.
Deacetylation and developer reactions were carried out for 1 hour at 37° C.

In the case of `CN(C)CCOCCOCCOCCOCCOCC(=O)Nc1ccc(NC(=S)NC(=O)c2ccc(C(C)(C)C)cc2)cc1` [Compound 8, N-{4-[3-(4-tert-Butyl-benzoyl)-thioureido]-phenyl}-2-[2-(2-{2-[2-(2-dimethylamino-ethoxy)-ethoxy]-ethoxy}-ethoxy)-ethoxy]-acetamide hydrochloride], the IC50 at SirT1 was over 60 µM.

As for `CC(C)(C)c1ccc(C(=O)NC(=S)Nc2ccc(NC(=O)CCCCN3CCOCC3)cc2)cc1` [JH156], the “Bioactivity (relative to JJ91)” value in data set [1] is “Active (75.4%)”.

On to `CC(=O)Nc1ccc(NC(=S)NC(=O)c2ccc(C(C)(C)C)cc2)cc1` [JJ91, N-{4-[3-(4-tert-Butyl-benzoyl)-thioureido]-phenyl}-acetamide], for which the “growth of BL2 xenograft tumours” value in data set [2] is recorded as “reduces growth of BL2 xenograft tumours”. In addition, in data set [1] (T22 RGC-ΔFos-lacZ cells treated 16 hours), the “p53 transcription factor function” value was “activates p53's transcription factor function”. Also, in the data set with SKNSH-DDp53 cells, the “effects on DNA synthesis and cell death” value is listed as “not observed”. Besides, the BL2 cell survival entry in data set [3] was “largely reduced”. Besides, in the data set with p53, the “levels of the p53 downstream target p21” value is “increased” and the p53 levels result is “rapidly increased”. The “levels of p53 phosphoserine-15” value in the data set with p53 (compared with mitomycin C 10 μM) was “not as high as those observed with the genotoxic gent mitomycin C”. In data set [4], the concentrations in blood entry is given as “reach micromolar concentrations in blood” and the “weight or behavioural changes” value is on record as “do not cause significant weight or behavioural changes”. In data set [4] (mouse, ip, blood), the half-life is about 1.3 h.

On to `CC(C)(C)c1ccc(C(=O)NC(=S)Nc2ccc(NC(=O)CCCCBr)cc2)cc1` [JH140, 5-bromo-pentanoic acid {4-[3-(4-tert-butyl-benzoyl)-thioureido]-phenyl}-amide], for which, in data set [1], the “Bioactivity (relative to JJ91)” value is “Active (87.5%)”.

On to `CC(C)(C)OC(=O)Nc1ccc(NC(=S)NC(=O)c2ccc(C(C)(C)C)cc2)cc1` [Compound 21, {4-[3-(4-tert-Butyl-benzoyl)-thioureido]-phenyl}-carbamic acid tert-butyl ester], for which the “activity in the p53 activation assay (in words)” value in data set [1] is “very good activity”.

`CC(C)C(=O)Nc1ccc(NC(=S)NC(=O)c2ccc(C(C)(C)C)cc2)cc1` [Compound 7322366]: the “Bioactivity (relative to JJ91)” value in data set [1] is given as “Active (81.2%)”.

Regarding `CC(C)(C)c1ccc(C(=O)NC(=S)Nc2ccc(NC(=O)CCCCN3CCOCC3)cc2)cc1.Cl` [JH156HCl], the “Bioactivity (relative to JJ91)” value in data set [1] is on record as “Active (59.6%)”.

In the case of `CC(C)(C)c1ccc(C(=O)NC(=S)Nc2ccc(N)cc2)cc1` [JH129, 1-(4-Amino-phenyl)-3-(4-tert-butyl-benzoyl)-thiourea], the “Bioactivity (relative to JJ91)” value in data set [1] was “Active (<)”.

As to `CN(C)CCCCCC(=O)Nc1ccc(NC(=S)NC(=O)c2ccc(C(C)(C)C)cc2)cc1` [Compound 6, 6-Dimethylamino-hexanoic acid {4-[3-(4-tert-butyl-benzoyl)-thioureido]-phenyl}-amide hydrochloride], on SirT1, the IC50 is 16 ± 3 µM.

Take `CC(C)(C)c1ccc(C(=O)NC(=S)Nc2ccc(NC(=O)c3ccccc3)cc2)cc1` [JH151]: the “Bioactivity (relative to JJ91)” value in data set [1] is “Active (106.1%)”.

As for `CN(C)CCCC(=O)Nc1ccc(NC(=S)NC(=O)c2ccc(C(C)(C)C)cc2)cc1` [Compound 5, N-{4-[3-(4-tert-Butyl-benzoyl)-thioureido]-phenyl}-4-dimethylamino-butyramide hydrochloride], the IC50 at SirT1 amounted to 32 ± 9 µM.

As for `CN(C)CCCCC(=O)Nc1ccc(NC(=O)NC(=O)c2ccc(C(C)(C)C)cc2)cc1` [Compound 24, 5-Dimethylamino-pentanoic acid {4-[3-(4-tert-butyl-benzoyl)-ureido]-phenyl}-amide hydrochloride], the IC50 at SirT1 turned out to be 29 µM.

On to `CN(C)CCCCCCCC(=O)Nc1ccc(NC(=S)NC(=O)c2ccc(C(C)(C)C)cc2)cc1` [Compound 7, 8-Dimethylamino-octanoic acid {4-[3-(4-tert-butyl-benzoyl)-thioureido]-phenyl}-amide hydrochloride], for which the half-inhibitory concentration (IC50) on SirT1 is 25 ± 10 µM.

These data come from patent US8501991B2, “P53 activating compounds” (University Court of the University of Dundee, priority 2006, dated 2013).
